According to PubChem BioAssay (NCI):
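Following 48 hours of exposure in 96-well plates, responses at five concentrations were used to interpolate endpoints linearly. GI50 = concentration required for 50% inhibition of growth. TGI is the concentration that stops growth completely.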

Key:
Assay in all cases: DTP human tumour cell line panel, 48 h
SK-MEL-28 melanoma = test system: SK-MEL-28 melanoma
U251 CNS = test system: U251 CNS
SK-OV-3 ovarian = test system: SK-OV-3 ovarian
MCF7 breast = test system: MCF7 breast
NCI-H522 lung = test system: NCI-H522 lung
NCI-H23 lung = test system: NCI-H23 lung
BT-549 breast = test system: BT-549 breast
HCT-15 colon = test system: HCT-15 colon
OVCAR-8 ovarian = test system: OVCAR-8 ovarian
SK-MEL-5 melanoma = test system: SK-MEL-5 melanoma
UACC-257 melanoma = test system: UACC-257 melanoma
HL-60(TB) leukemia = test system: HL-60(TB) leukemia
PC-3 prostate = test system: PC-3 prostate
A498 renal = test system: A498 renal
T-47D breast = test system: T-47D breast
MDA-MB-435 = test system: MDA-MB-435
UACC-62 melanoma = test system: UACC-62 melanoma
HOP-62 NSCLC = test system: HOP-62 NSCLC
NCI-H460 lung = test system: NCI-H460 lung
SK-MEL-2 melanoma = test system: SK-MEL-2 melanoma
ACHN renal = test system: ACHN renal
MALME-3M melanoma = test system: MALME-3M melanoma
OVCAR-5 ovarian = test system: OVCAR-5 ovarian
SF-539 CNS = test system: SF-539 CNS
HT29 colon = test system: HT29 colon
SW-620 colon = test system: SW-620 colon
SF-295 CNS = test system: SF-295 CNS
OVCAR-3 ovarian = test system: OVCAR-3 ovarian
DU-145 prostate = test system: DU-145 prostate
M14 melanoma = test system: M14 melanoma
NCI-H226 lung = test system: NCI-H226 lung
TK-10 renal = test system: TK-10 renal
SF-268 CNS = test system: SF-268 CNS
CAKI-1 renal = test system: CAKI-1 renal
UO-31 renal = test system: UO-31 renal
COLO 205 colon = test system: COLO 205 colon
KM12 colon = test system: KM12 colon
RXF 393 renal = test system: RXF 393 renal
LOX IMVI melanoma = test system: LOX IMVI melanoma
CCRF-CEM leukemia = test system: CCRF-CEM leukemia
HS 578T breast = test system: HS 578T breast
SN12C renal = test system: SN12C renal
HCC-2998 colon = test system: HCC-2998 colon
K-562 leukemia = test system: K-562 leukemia
SNB-19 CNS = test system: SNB-19 CNS
IGROV1 ovarian = test system: IGROV1 ovarian
MDA-MB-231 breast = test system: MDA-MB-231 breast
SNB-75 CNS = test system: SNB-75 CNS
HCT-116 colon = test system: HCT-116 colon
OVCAR-4 ovarian = test system: OVCAR-4 ovarian
A549 NSCLC = test system: A549 NSCLC
SR leukemia = test system: SR leukemia
MOLT-4 leukemia = test system: MOLT-4 leukemia
RPMI-8226 leukemia = test system: RPMI-8226 leukemia
786-0 renal = test system: 786-0 renal
EKVX NSCLC = test system: EKVX NSCLC
NCI/ADR-RES ovarian = test system: NCI/ADR-RES ovarian

COc1ccc(/C=C/C(=O)c2c(O)c(C)c(O)c3c2OC2=CC(O)=C(C(C)=O)C(=O)[C@]23C)cc1
GI50 (SK-MEL-28 melanoma): 1150 nM | TGI (SK-MEL-28 melanoma): 4720 nM | GI50 (U251 CNS): 801 nM | TGI (U251 CNS): 4210 nM | GI50 (SK-OV-3 ovarian): 1790 nM | TGI (SK-OV-3 ovarian): 7050 nM | GI50 (MCF7 breast): 610 nM | TGI (MCF7 breast): 3800 nM | GI50 (NCI-H522 lung): 511 nM | TGI (NCI-H522 lung): 2330 nM | GI50 (NCI-H23 lung): 598 nM | TGI (NCI-H23 lung): 3130 nM | GI50 (BT-549 breast): 931 nM | TGI (BT-549 breast): 5260 nM | GI50 (HCT-15 colon): 706 nM | TGI (HCT-15 colon): 3480 nM | GI50 (OVCAR-8 ovarian): 631 nM | TGI (OVCAR-8 ovarian): 2350 nM | GI50 (SK-MEL-5 melanoma): 1290 nM | TGI (SK-MEL-5 melanoma): 3610 nM | GI50 (UACC-257 melanoma): 3110 nM | TGI (UACC-257 melanoma): 10000 nM | GI50 (HL-60(TB) leukemia): 603 nM | TGI (HL-60(TB) leukemia): 5850 nM | GI50 (PC-3 prostate): 611 nM | TGI (PC-3 prostate): 2340 nM | GI50 (A498 renal): 770 nM | TGI (A498 renal): 2980 nM | GI50 (T-47D breast): 521 nM | TGI (T-47D breast): 2660 nM | GI50 (MDA-MB-435): 1920 nM | TGI (MDA-MB-435): 4110 nM | GI50 (UACC-62 melanoma): 891 nM | TGI (UACC-62 melanoma): 3480 nM | GI50 (HOP-62 NSCLC): 1920 nM | TGI (HOP-62 NSCLC): 6130 nM | GI50 (NCI-H460 lung): 898 nM | TGI (NCI-H460 lung): 3710 nM | GI50 (SK-MEL-2 melanoma): 961 nM | TGI (SK-MEL-2 melanoma): 3720 nM | GI50 (ACHN renal): 1030 nM | TGI (ACHN renal): 10400 nM | GI50 (MALME-3M melanoma): 2230 nM | TGI (MALME-3M melanoma): 5220 nM | GI50 (OVCAR-5 ovarian): 4200 nM | TGI (OVCAR-5 ovarian): > 17500 nM | GI50 (SF-539 CNS): 2710 nM | TGI (SF-539 CNS): 6440 nM | GI50 (HT29 colon): 860 nM | TGI (HT29 colon): 4330 nM | GI50 (SW-620 colon): 659 nM | TGI (SW-620 colon): 3790 nM | GI50 (SF-295 CNS): 821 nM | TGI (SF-295 CNS): 5110 nM | GI50 (OVCAR-3 ovarian): 649 nM | TGI (OVCAR-3 ovarian): 2830 nM | GI50 (DU-145 prostate): 1230 nM | TGI (DU-145 prostate): 7840 nM | GI50 (M14 melanoma): 925 nM | TGI (M14 melanoma): 4820 nM | GI50 (NCI-H226 lung): 2610 nM | TGI (NCI-H226 lung): 6750 nM | GI50 (TK-10 renal): 597 nM | TGI (TK-10 renal): 5100 nM | GI50 (SF-268 CNS): 871 nM | TGI (SF-268 CNS): 4720 nM | GI50 (CAKI-1 renal): 694 nM | TGI (CAKI-1 renal): 8190 nM | GI50 (UO-31 renal): 3450 nM | TGI (UO-31 renal): 10600 nM | GI50 (COLO 205 colon): 1930 nM | TGI (COLO 205 colon): 4540 nM | GI50 (KM12 colon): 1040 nM | TGI (KM12 colon): 5900 nM | GI50 (RXF 393 renal): 1960 nM | TGI (RXF 393 renal): 4990 nM | GI50 (LOX IMVI melanoma): 1800 nM | TGI (LOX IMVI melanoma): 4570 nM | GI50 (CCRF-CEM leukemia): 702 nM | TGI (CCRF-CEM leukemia): 9970 nM | GI50 (HS 578T breast): 2900 nM | TGI (HS 578T breast): 8760 nM | GI50 (SN12C renal): 603 nM | TGI (SN12C renal): 2480 nM | GI50 (HCC-2998 colon): 1960 nM | TGI (HCC-2998 colon): 5120 nM | GI50 (K-562 leukemia): 627 nM | TGI (K-562 leukemia): > 17500 nM | GI50 (SNB-19 CNS): 1560 nM | TGI (SNB-19 CNS): 7800 nM | GI50 (IGROV1 ovarian): 932 nM | TGI (IGROV1 ovarian): 8020 nM | GI50 (MDA-MB-231 breast): 1040 nM | TGI (MDA-MB-231 breast): 5660 nM | GI50 (SNB-75 CNS): 2800 nM | TGI (SNB-75 CNS): 5950 nM | GI50 (HCT-116 colon): 610 nM | TGI (HCT-116 colon): 2490 nM | GI50 (OVCAR-4 ovarian): 2210 nM | TGI (OVCAR-4 ovarian): 10000 nM | GI50 (A549 NSCLC): 1330 nM | TGI (A549 NSCLC): 7260 nM | GI50 (SR leukemia): 1170 nM | TGI (SR leukemia): > 17500 nM | GI50 (MOLT-4 leukemia): 698 nM | TGI (MOLT-4 leukemia): > 17500 nM | GI50 (RPMI-8226 leukemia): 596 nM | TGI (RPMI-8226 leukemia): 1880 nM | GI50 (786-0 renal): 2440 nM | TGI (786-0 renal): 7590 nM | GI50 (EKVX NSCLC): 676 nM | TGI (EKVX NSCLC): 5320 nM | GI50 (NCI/ADR-RES ovarian): 956 nM | TGI (NCI/ADR-RES ovarian): 4580 nM
